ChEMBL document CHEMBL3124892, “Polyphenols bearing cinnamaldehyde scaffold showing cell growth inhibitory effects on the cisplatin-resistant A2780/Cis ovarian cancer cells” (Bioorg Med Chem, 2014)
The source made the active and inactive calls. The calls are words filed in the database; no cut-off is given here.

Columns and labels:
[1] = Growth inhibition of cisplatin-resistant human A2780cis cells after 7 days by crystal violet staining based clonogenic assay; format: functional; details: A2780cisR, 168 h
[2] = test system: A2780cisR; assay: Induction of apoptosis in cisplatin-resistant human A2780cis cells assessed as PARP cleavage at 20 uM after 24 hrs by western blot analysis; format: functional, cell-based
[3] = Cell cycle arrest in cisplatin-resistant human A2780cis cells assessed as accumulation at G2/M phase at 20 uM after 24 hrs by propidium iodide staining based flow cytometry (reference value: 29.47%); format: functional; details: A2780cisR
[4] = Cell cycle arrest in cisplatin-resistant human A2780cis cells assessed as accumulation at G1 phase at 20 uM after 24 hrs by propidium iodide staining based flow cytometry (reference value: 45.33%); format: functional; details: A2780cisR
[5] = test system: A2780cisR; assay: Antiproliferative activity against cisplatin-resistant human A2780cis cells at 1 to 20 uM by cell counting kit-8 analysis; format: functional, cell-based; details: TDE = time-dependent effect
[6] = Cell cycle arrest in cisplatin-resistant human A2780cis cells assessed as accumulation at S phase at 20 uM after 24 hrs by propidium iodide staining based flow cytometry (reference value: 17.24%); format: functional; details: A2780cisR
[7] = test system: A2780cisR; assay: Induction of apoptosis in cisplatin-resistant human A2780cis cells assessed as increase in cleaved active caspase-7 level at 20 uM after 24 hrs by immunofluorescent microscopy; format: functional, cell-based
[8] = test system: A2780cisR; assay: Induction of apoptosis in cisplatin-resistant human A2780cis cells assessed as shrunken and fragmented nuclei with condensed chromatin at 20 uM after 24 hrs by TO-PRO-3 iodide staining based immunofluorescent microscopy; format: functional, cell-based
[9] = test system: A2780cisR; assay: Induction of apoptosis in cisplatin-resistant human A2780cis cells assessed as stimulation of caspase 7 cleavage at 20 uM after 24 hrs by western blot analysis; format: functional, cell-based
[10] = Cell cycle arrest in cisplatin-resistant human A2780cis cells assessed as accumulation at sub-G1 phase at 20 uM after 24 hrs by propidium iodide staining based flow cytometry (reference value: 7.76%); format: functional; details: A2780cisR
[11] = test system: A2780cisR; assay: Antiproliferative activity against cisplatin-resistant human A2780cis cells after 24 to 48 hrs by cell counting kit-8 analysis; format: functional, cell-based
[12] = target: T1, Aurora kinase A (Homo sapiens, UniProt O14965); assay: Inhibition of human aurora A kinase using LRRASLG as substrate by scintillation counting in presence of [gamma-33P]ATP
T1 sequence (O14965 whole entry): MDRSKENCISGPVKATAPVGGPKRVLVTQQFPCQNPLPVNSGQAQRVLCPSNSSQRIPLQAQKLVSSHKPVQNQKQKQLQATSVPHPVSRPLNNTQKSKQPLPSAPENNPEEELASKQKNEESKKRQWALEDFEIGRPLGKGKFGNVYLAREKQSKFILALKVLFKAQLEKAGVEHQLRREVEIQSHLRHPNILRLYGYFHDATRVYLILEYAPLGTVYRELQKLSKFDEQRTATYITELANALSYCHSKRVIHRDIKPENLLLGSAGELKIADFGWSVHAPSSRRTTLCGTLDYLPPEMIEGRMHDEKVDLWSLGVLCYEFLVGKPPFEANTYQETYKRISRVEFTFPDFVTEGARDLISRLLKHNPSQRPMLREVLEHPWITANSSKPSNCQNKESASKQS

Row | Structure (SMILES) | GI50 ([1]; read-out: GI50) | GI50 ([1]; read-out: pGI50 (converted)) | other results
1 | COc1ccc(/C=C/C(=O)c2cc(OC)ccc2O)c(OC)c1 | 19.8 µM | 20 µM | –
2 | COc1ccc(O)c(C(=O)/C=C/c2cccc(OC)c2OC)c1 | 17 µM | 17 µM | –
3 | COc1cc(OC)c(/C=C/C(=O)c2cc(OC)ccc2O)c(OC)c1 | 3.95 µM | 3.99 µM | Activity [2]: Active; Activity [3]: 68.3%; Activity [4]: 3.53%; Activity [5]: tde; Activity [6]: 4.09%; Activity [7]: Active; Activity [8]: Active; Activity [9]: Active; Activity [10]: 16.5%; Activity [11]: Dose-dependent effect
4 | COc1ccc(/C=C/C(=O)c2ccccc2O)c(OC)c1OC | 14.3 µM | 14.5 µM | –
5 | COc1cccc(/C=C/C(=O)c2c(O)cccc2OC)c1 | 9.64 µM | 9.57 µM | –
6 | COc1ccccc1/C=C/C(=O)c1ccccc1O | 11.7 µM | 11.8 µM | –
7 | COc1cc(/C=C/C(=O)c2cc(OC)ccc2O)cc(OC)c1 | 11.3 µM | 11.2 µM | –
8 | COc1ccc(/C=C/C(=O)c2ccccc2O)cc1 | 15.9 µM | 15.9 µM | –
9 | COc1ccc(/C=C/C(=O)c2c(O)cccc2OC)c(OC)c1OC | 18.4 µM | 18.2 µM | –
10 | COc1cccc(/C=C/C(=O)c2ccccc2O)c1OC | 14.4 µM | 14.5 µM | –
11 | COc1ccc(/C=C/C(=O)c2ccccc2O)c(OC)c1 | 15 µM | 14.8 µM | –
12 | O=C(/C=C/c1ccccc1)c1ccccc1O [2'-HYDROXYCHALCONE] | 13.5 µM | 13.5 µM | –
13 | COc1ccc2c(c1)OCC(C=O)=C2 | > 20 µM | 20 µM | –
14 | COc1cc(OC)c(OC)cc1/C=C/C(=O)c1c(O)cccc1OC | 19.2 µM | 19.1 µM | –
15 | COc1ccc2c(c1)C=C(C=O)CO2 | > 20 µM | 20 µM | –
16 | COc1cccc(/C=C/C(=O)c2c(O)cccc2OC)c1OC | 9.67 µM | 9.8 µM | –
17 | COc1ccc(/C=C/C(=O)c2c(O)cccc2OC)cc1 | 15.4 µM | 15.5 µM | –
18 | COc1ccccc1/C=C/C(=O)c1c(O)cccc1OC | 9.55 µM | 9.57 µM | –
19 | COc1cccc(/C=C/C(=O)c2cc(OC)ccc2O)c1 | 10.1 µM | 10.3 µM | –
20 | COc1ccc(O)c(C(=O)/C=C/c2cc(OC)c(OC)cc2OC)c1 | > 20 µM | 20 µM | –
21 | COc1cc(OC)c(/C=C/C(=O)c2c(O)cccc2OC)c(OC)c1 | 3.87 µM | 3.9 µM | Activity [2]: Active; Activity [3]: 71%; Activity [4]: 3.36%; Activity [5]: tde; Activity [6]: 4.33%; Activity [9]: Active; Activity [10]: 17.1%; IC50 [12]: 66.4 µM; Activity [11]: Dose-dependent effect
22 | COc1ccc2c(c1)OCC(C(C)=O)=C2 | > 20 µM | 20 µM | –
23 | COc1cc(/C=C/C(=O)c2c(O)cccc2OC)cc(OC)c1 | 11.4 µM | 11.5 µM | –
24 | COc1ccc2c(c1)C=C(C(C)=O)CO2 | > 20 µM | 20 µM | –
25 | COc1ccc(/C=C/C(=O)c2c(O)cccc2OC)c(OC)c1 | 9.55 µM | 9.57 µM | –
26 | COc1cc(/C=C/C(=O)c2ccccc2O)cc(OC)c1 | 13.7 µM | 13.8 µM | –
